The assay deals with human chemokine receptor CCR3 (Homo sapiens (Human), UniProt P51677). Briefly: CCR3 receptor binding assay (SPA, 125I-eotaxin-1). Particulars: human Eotaxin-1 at human CCR3-Rezeptor; membranes of hCCR3-C1 (transfected K562) cells. On the procedure:
The CCR3 receptor binding test is based on a K562 cell line (leukemia myelogenic blast cells) transfected with the human chemokine receptor CCR3 (hCCR3-C1 cells). The cell membranes were prepared by disrupting the hCCR3-C1 cells by […]. The preparation was centrifuged at 400 g 4° C. for 30 min. The supernatant was transferred into fresh tubes followed by a second centrifugation at 48000 g, 4° C. for 1 h. The membranes were re-suspended in the SPA incubation buffer (25 mM HEPES, 25 mM MgCl2 6×H2O, 1 mM CaCl2 2×H2O) without bovine serum albumin and homogenized by passing through a single use needle (Terumo, 23Gx1″). The membranes were stored in aliquots at −80° C.
The CCR3 receptor binding assay was performed in a Scintillation Proximity Assay (SPA) design with the radioligand recombinant human ^125Iodine-eotaxin-1. Cell membranes of hCCR3 C1 cells were again homogenized by passing through a single use needle (Terumo, 23Gx1″) and diluted in SPA incubation buffer in suitable concentrations (0.5-10 μg protein/well) in 96 well microtiter plates (1450-514, Perkin Elmer). The SPA assay was set up in the SPA incubation buffer with a final volume of 200 μl and final concentration of 25 mM HEPES, 25 mM MgCl2 6×H2O, 1 mM CaCl2 2×H2O and 0.1% bovine serum albumin. The SPA assay mixture contained 60 μl of the membrane suspension, 80 μl of Wheat Germ Agglutinin coated PVT beads (organic scintillator, GE Healthcare, RPNQ-0001) 0.2 mg/well), 40 μl of recombinant human ^125Jodine-eotaxin-1 (Biotrend), diluted in SPA buffer to a final concentration of 30.000 dpm per well, and 20 μl of the test compound (dissolved in DMSO dilutions). The SPA assay mixture was incubated for 2 h at room temperature. Bound radioactivity was determined with a scintillation counter (Micro Beta “Trilux”, Wallac). Included were controls for total binding (no displacer added, Bo) and non-specific binding (NSB) by adding unlabelled recombinant human Eotaxin-1 (Biotrend, Cat #300-21) or a reference compound.
Determination of the affinity of a test compound was calculated by subtraction of the non-specific binding (NSB) from the total binding (Bo) or the binding in the presence of the test compound (B) at a given compound concentration. The NSB value was set to 100% inhibition. The Bo-NSB value was set to 0% inhibition.

This is an account of results in patent publication US8742115B2, “Co-crystals and salts of CCR3-inhibitors” (Boehringer Ingelheim International GmbH, priority 2010, dated 2014).

SMILES strings stand for the structures.

Chain of human chemokine receptor CCR3 (P51677 whole entry): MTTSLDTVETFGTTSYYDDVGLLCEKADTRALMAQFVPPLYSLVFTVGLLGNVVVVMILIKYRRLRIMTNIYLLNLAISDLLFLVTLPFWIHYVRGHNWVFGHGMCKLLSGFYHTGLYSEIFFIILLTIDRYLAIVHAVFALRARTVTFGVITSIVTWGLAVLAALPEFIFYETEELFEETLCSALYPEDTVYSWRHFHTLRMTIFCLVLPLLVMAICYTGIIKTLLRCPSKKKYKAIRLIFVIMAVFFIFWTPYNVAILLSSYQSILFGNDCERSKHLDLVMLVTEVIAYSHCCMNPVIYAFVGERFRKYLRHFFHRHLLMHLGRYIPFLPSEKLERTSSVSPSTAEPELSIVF

`CNC(=O)c1ccnc(NC(=O)[C@H]2CCC(=O)N2C2CCN(Cc3ccc(Cl)c(C)c3)CC2)c1` [Example 1]: the Ki (usually a measure of affinity in units of concentration, obtained from inhibition or displacement) amounted to 23.4 nM.
The compound `Cc1cccc(NC(=O)[C@H]2CCC(=O)N2C2CCN(Cc3ccc(Cl)c(C)c3)CC2)n1` [Example 2] displayed an inhibitory constant (Ki) of 69.6 nM.
`COc1ccnc(NC(=O)[C@H]2CCC(=O)N2C2CCN(Cc3ccc(Cl)c(C)c3)CC2)c1` [Example 3] displayed an inhibition constant (Ki) of 46.5 nM.
As to `Cc1ccnc(NC(=O)[C@H]2CCC(=O)N2C2CCN(Cc3ccc(Cl)c(C)c3)CC2)c1` [Example 4], the Ki was 67.5 nM.
`CCc1ccnc(NC(=O)[C@H]2CCC(=O)N2C2CCN(Cc3ccc(Cl)c(C)c3)CC2)c1` [Example 5] had a Ki of 197 nM.
In the case of `CNC(=O)c1cccc(NC(=O)[C@H]2CCC(=O)N2C2CCN(Cc3ccc(Cl)c(C)c3)CC2)n1` [Example 6] it was 72 nM; in that of `CNC(=O)c1cc(C)nc(NC(=O)[C@H]2CCC(=O)N2C2CCN(Cc3ccc(Cl)c(C)c3)CC2)c1` [Example 7], 10.4 nM.
Regarding `Cc1cc(CN2CCC(N3C(=O)CC[C@@H]3C(=O)Nc3cc(C(=O)N(C)C)ccn3)CC2)ccc1Cl` [Example 8], affinity was put at a Ki of 8.5 nM.
`Cc1cc(C(=O)N2CCCC2)cc(NC(=O)[C@H]2CCC(=O)N2C2CCN(Cc3ccc(Cl)c(C)c3)CC2)n1` [Example 9]: the affinity, expressed as Ki, was 0.9 nM. This Ki is about 9.4-fold lower than that of the compound before.
In the case of `Cc1cc(C(=O)N(C)C)cc(NC(=O)[C@H]2CCC(=O)N2C2CCN(Cc3ccc(Cl)c(C)c3)CC2)n1` [Example 11], the affinity corresponds to a Ki of 3.2 nM.
With `Cc1cc(CN2CCC(N3C(=O)CC[C@@H]3C(=O)Nc3cc(C(=O)N4CCCC4)ccn3)CC2)ccc1Cl` [Example 12], the Ki came out at 4.7 nM.
With `Cc1cc(CN2CCC(N3C(=O)CC[C@@H]3C(=O)Nc3cc(C(=O)N4CCOCC4)ccn3)CC2)ccc1Cl` [Example 13], affinity was put at a Ki of 19.1 nM. Compared with the last compound, the Ki is about 4.1-fold higher.
Consider `Cc1cc(CN2CCC(N3C(=O)CC[C@@H]3C(=O)N(C)c3ccccn3)CC2)ccc1Cl` [Example 14], for which affinity was put at a Ki of 1400 nM. Against the preceding compound, the Ki is about 73-fold higher.
As for `Cc1cc(C(=O)NCC2CC2)cc(NC(=O)[C@H]2CCC(=O)N2C2CCN(Cc3ccc(Cl)c(C)c3)CC2)n1` [Example 15], the Ki is 3.5 nM.
For `Cc1cc(C(=O)N2CCC2)cc(NC(=O)[C@H]2CCC(=O)N2C2CCN(Cc3ccc(Cl)c(C)c3)CC2)n1` [Example 16], the Ki came out at 6.8 nM.
As to `Cc1cc(C(=O)NCC(C)C)cc(NC(=O)[C@H]2CCC(=O)N2C2CCN(Cc3ccc(Cl)c(C)c3)CC2)n1` [Example 17], affinity was put at a Ki of 4.3 nM.
For the compound `Cc1cc(C(=O)NCC(F)F)cc(NC(=O)[C@H]2CCC(=O)N2C2CCN(Cc3ccc(Cl)c(C)c3)CC2)n1` [Example 18], the Ki is 4.6 nM. The Ki values of the last two compounds are within 1.5-fold of each other.
In turn, `CCC(C)NC(=O)c1cc(C)nc(NC(=O)[C@H]2CCC(=O)N2C2CCN(Cc3ccc(Cl)c(C)c3)CC2)c1` (stereo partly shown) [Example 19] yielded a Ki of 4 nM.
As for `CCC(C)N(C)C(=O)c1cc(C)nc(NC(=O)[C@H]2CCC(=O)N2C2CCN(Cc3ccc(Cl)c(C)c3)CC2)c1` (stereo partly shown) [Example 21], affinity was put at a Ki of 5.2 nM.
In the case of `Cc1cc(C(=O)N(C)C(C)C)cc(NC(=O)[C@H]2CCC(=O)N2C2CCN(Cc3ccc(Cl)c(C)c3)CC2)n1` [Example 22] it was 2.3 nM; in that of `Cc1cc(C(=O)NC2CCC2)cc(NC(=O)[C@H]2CCC(=O)N2C2CCN(Cc3ccc(Cl)c(C)c3)CC2)n1` [Example 23], 4.2 nM; in that of `Cc1cc(C(=O)N(C)C)cc(NC(=O)[C@H]2CCC(=O)N2C2CCN(Cc3ccc(Br)c(C)c3)CC2)n1` [Example 24], 5.8 nM.
As to `CCc1cc(C(=O)N(C)C)cc(NC(=O)[C@H]2CCC(=O)N2C2CCN(Cc3ccc(Cl)c(C)c3)CC2)n1` [Example 25], the Ki is 8.3 nM. The Ki values of the last two compounds are within 1.5-fold of each other.
`COc1cc(C(=O)N(C)C)cc(NC(=O)[C@H]2CCC(=O)N2C2CCN(Cc3ccc(Cl)c(C)c3)CC2)n1` [Example 26] came in with a Ki of 232 nM.
In turn, `CCCCc1cc(C(=O)N(C)C)cc(NC(=O)[C@H]2CCC(=O)N2C2CCN(Cc3ccc(Cl)c(C)c3)CC2)n1` [Example 27] displayed a Ki of 414 nM.
As to `Cc1cc(C(=O)N(C)C)cc(NC(=O)[C@H]2CCC(=O)N2C2CCN(Cc3ccc(Cl)c(Cl)c3)CC2)n1` [Example 28], the inhibitory constant (Ki) turned out to be 17.8 nM. Compared with the last compound, the Ki is about 23-fold lower.
`Cc1cc(CN2CCC(N3C(=O)CC[C@@H]3C(=O)Nc3cc(C(=O)N(C)C)cc(C(C)C)n3)CC2)ccc1Cl` [Example 29] came in with a Ki of 4.1 nM. Against the preceding compound, the Ki is about 4.3-fold lower.
`Cc1cc(C(=O)N(C)C)cc(NC(=O)[C@H]2CCC(=O)N2C2CCN(Cc3ccc(F)c(C)c3)CC2)n1` [Example 30] registered a Ki of 70.3 nM.
Turning to `Cc1cc(C(=O)N(C)C)cc(NC(=O)[C@H]2CCC(=O)N2C2CCN(Cc3ccc(Cl)c(C(F)(F)F)c3)CC2)n1` [Example 31], the Ki came to 87.2 nM. The Ki values of the last two compounds are within 1.5-fold of each other.
Compound `Cc1cc(CN2CCC(N3C(=O)CC[C@@H]3C(=O)Nc3cc(C(=O)N(C)C)cc(C4CC4)n3)CC2)ccc1Cl` [Example 32] registered a Ki of 2.3 nM.
The compound `CCc1cc(CN2CCC(N3C(=O)CC[C@@H]3C(=O)Nc3cc(C(=O)N(C)C)cc(C)n3)CC2)ccc1Cl` [Example 33] gave a Ki of 7.9 nM.
`C#Cc1cc(C(=O)N(C)C)cc(NC(=O)[C@H]2CCC(=O)N2C2CCN(Cc3ccc(Cl)c(C)c3)CC2)n1` [Example 34] returned a Ki of 7.9 nM.
Consider `Cc1cc(C(=O)N(C)C)cc(NC(=O)[C@H]2CCC(=O)N2C2CCN(Cc3cc(C)c(Cl)c(C)c3)CC2)n1` [Example 35], for which the affinity corresponds to a Ki of 61.3 nM.
`CCN(C)C(=O)c1cc(C)nc(NC(=O)[C@H]2CCC(=O)N2C2CCN(Cc3ccc(Cl)c(C)c3)CC2)c1` [Example 36] came in with a Ki of 1.7 nM.
